≈ marks a conversion by molar mass, not a printed value. Calls of active or inactive are those of the source. The calls are words filed in the database; no cut-off is given here.
Key:
[1] = tested on: Cutibacterium acnes; experiment: Antibacterial activity against Propionibacterium acnes ATCC 11827 up to 800 ug/ml after 2 days by broth dilution method; format: functional, organism-based
[2] = tested on: Corynebacterium ammoniagenes; experiment: Antibacterial activity against Brevibacterium ammoniagenes ATCC 6872 up to 800 ug/ml after 2 days by broth dilution method; format: functional, organism-based
[3] = tested on: Escherichia coli; experiment: Antibacterial activity against Escherichia coli ATCC 9637 up to 800 ug/ml after 2 days by broth dilution method; format: functional, organism-based
[4] = tested on: Saccharomyces cerevisiae; experiment: Antifungal activity against Saccharomyces cerevisiae ATCC 7754 up to 800 ug/ml after 2 days by broth dilution method; format: functional, organism-based
[5] = tested on: Proteus vulgaris; experiment: Antibacterial activity against Proteus vulgaris ATCC 13315 up to 800 ug/ml after 2 days by broth dilution method; format: functional, organism-based
[6] = tested on: Cyberlindnera jadinii; experiment: Antifungal activity against Candida utilis ATCC 9226 up to 800 ug/ml after 2 days by broth dilution method; format: functional, organism-based
[7] = tested on: Staphylococcus aureus; experiment: Antibacterial activity against Staphylococcus aureus ATCC 12598 up to 800 ug/ml after 2 days by broth dilution method; format: functional, organism-based
[8] = tested on: Penicillium chrysogenum; experiment: Antifungal activity against Penicillium chrysogenum ATCC 10106 up to 800 ug/ml after 5 days by broth dilution method; format: functional, organism-based
[9] = tested on: Trichophyton mentagrophytes; experiment: Antifungal activity against Trichophyton mentagrophytes ATCC 18748 up to 800 ug/ml after 5 days by broth dilution method; format: functional, organism-based
[10] = tested on: Bacillus subtilis; experiment: Antibacterial activity against Bacillus subtilis ATCC 9372 up to 800 ug/ml after 2 days by broth dilution method; format: functional, organism-based
[11] = tested on: Pseudomonas aeruginosa; experiment: Antibacterial activity against Pseudomonas aeruginosa ATCC 10145 up to 800 ug/ml after 2 days by broth dilution method; format: functional, organism-based
[12] = tested on: Malassezia; experiment: Antifungal activity against Pityrosporum ovale ATCC 14521 up to 800 ug/ml after 3 days by broth dilution method; format: functional, organism-based
[13] = tested on: Klebsiella aerogenes; experiment: Antibacterial activity against Enterobacter aerogenes ATCC 13048 up to 800 ug/ml after 2 days by broth dilution method; format: functional, organism-based
[14] = tested on: Streptococcus mutans; experiment: Antibacterial activity against Streptococcus mutans ATCC […] up to 800 ug/ml after 2 days by broth dilution method; format: functional, organism-based
[15] = tested on: Streptococcus mutans; experiment: Antibacterial activity against Streptococcus mutans ATCC […] after 2 days by broth dilution method; format: functional; conditions: 48 h
[16] = tested on: Pseudomonas aeruginosa; experiment: Antibacterial activity against Pseudomonas aeruginosa ATCC 10145 after 2 days by broth dilution method; format: functional; conditions: ATCC 10145, 48 h
[17] = tested on: Malassezia; experiment: Antifungal activity against Pityrosporum ovale ATCC 14521 after 3 days by broth dilution method; format: functional; conditions: ATCC 14521, 72 h
[18] = tested on: Cutibacterium acnes; experiment: Antibacterial activity against Propionibacterium acnes ATCC 11827 after 2 days by broth dilution method; format: functional; conditions: ATCC 11827, 48 h
[19] = tested on: Escherichia coli; experiment: Antibacterial activity against Escherichia coli ATCC 9637 after 2 days by broth dilution method; format: functional; conditions: ATCC 9637, 48 h
[20] = tested on: Klebsiella aerogenes; experiment: Antibacterial activity against Enterobacter aerogenes ATCC 13048 after 2 days by broth dilution method; format: functional; conditions: ATCC 13048, 48 h
[21] = tested on: Corynebacterium ammoniagenes; experiment: Antibacterial activity against Brevibacterium ammoniagenes ATCC 6872 after 2 days by broth dilution method; format: functional; conditions: ATCC 6872, 48 h
[22] = tested on: Bacillus subtilis; experiment: Antibacterial activity against Bacillus subtilis ATCC 9372 after 2 days by broth dilution method; format: functional; conditions: ATCC 9372, 48 h
[23] = tested on: Cyberlindnera jadinii; experiment: Antifungal activity against Candida utilis ATCC 9226 after 2 days by broth dilution method; format: functional; conditions: Williopsis jadinii, ATCC 9226, 48 h
[24] = tested on: Proteus vulgaris; experiment: Antibacterial activity against Proteus vulgaris ATCC 13315 after 2 days by broth dilution method; format: functional; conditions: ATCC 13315, 48 h
[25] = tested on: Saccharomyces cerevisiae; experiment: Antifungal activity against Saccharomyces cerevisiae ATCC 7754 after 2 days by broth dilution method; format: functional; conditions: ATCC 7754, 48 h
[26] = tested on: Penicillium chrysogenum; experiment: Antifungal activity against Penicillium chrysogenum ATCC 10106 after 5 days by broth dilution method; format: functional; conditions: ATCC 10106, 120 h
[27] = tested on: Staphylococcus aureus; experiment: Antibacterial activity against Staphylococcus aureus ATCC 12598 after 2 days by broth dilution method; format: functional; conditions: ATCC 12598, 48 h
[28] = tested on: Trichophyton mentagrophytes; experiment: Antifungal activity against Trichophyton mentagrophytes ATCC 18748 after 5 days by broth dilution method; format: functional; conditions: ATCC 18748, 120 h
[29] = tested on: Klebsiella aerogenes; experiment: Ratio of MBC to MIC for Enterobacter aerogenes ATCC 13048; format: functional
[30] = tested on: Streptococcus mutans; experiment: Ratio of MBC to MIC for Streptococcus mutans ATCC […]; format: functional
[31] = tested on: Escherichia coli; experiment: Ratio of MBC to MIC for Escherichia coli ATCC 9637; format: functional
[32] = tested on: Pseudomonas aeruginosa; experiment: Ratio of MBC to MIC for Pseudomonas aeruginosa ATCC 10145; format: functional
[33] = tested on: Cutibacterium acnes; experiment: Ratio of MBC to MIC for Propionibacterium acnes ATCC 11827; format: functional
[34] = tested on: Proteus vulgaris; experiment: Ratio of MBC to MIC for Proteus vulgaris ATCC 13315; format: functional
[35] = tested on: Staphylococcus aureus; experiment: Ratio of MBC to MIC for Staphylococcus aureus ATCC 12598; format: functional
[36] = tested on: Corynebacterium ammoniagenes; experiment: Ratio of MBC to MIC for Brevibacterium ammoniagenes ATCC 6872; format: functional

| MIC [15] [µg/mL] | MIC [16] [µg/mL] | MIC [17] [µg/mL] | MIC [18] [µg/mL] | MIC [19] [µg/mL] | MIC [20] [µg/mL] | MIC [21] [µg/mL] | MIC [22] [µg/mL] | MIC [23] [µg/mL] | MIC [24] [µg/mL] | MIC [25] [µg/mL] | MIC [26] [µg/mL] | MIC [27] [µg/mL] | MIC [28] [µg/mL] | SMILES | other results |
| --- | --- | --- | --- | --- | --- | --- | --- | --- | --- | --- | --- | --- | --- | --- | --- |
| 100 (≈ 648 µM) | > 800 | 25 (≈ 162 µM) | 12.5 (≈ 81 µM) | > 800 | > 800 | 50 (≈ 324 µM) | 25 (≈ 162 µM) | 25 (≈ 162 µM) | 25 (≈ 162 µM) | 25 (≈ 162 µM) | 12.5 (≈ 81 µM) | 25 (≈ 162 µM) | 3.13 (≈ 20.3 µM) | CCCCCCC/C=C/C=O [TRANS-2-DECENAL] |  |
| > 800 | > 800 | 800 (≈ 7990 µM) | 800 (≈ 7990 µM) | > 800 | > 800 | > 800 | > 800 | > 800 | > 800 | > 800 | > 800 | > 800 | > 800 | CCCCCC=O [HEXANAL] |  |
| > 800 | > 800 | 400 (≈ 3440 µM) | 400 (≈ 3440 µM) | > 800 | > 800 | 400 (≈ 3440 µM) | 200 (≈ 1720 µM) | 400 (≈ 3440 µM) | 400 (≈ 3440 µM) | 400 (≈ 3440 µM) | 400 (≈ 3440 µM) | > 800 | 100 (≈ 861 µM) | CCCCCC(=O)O [HEXANOATE] |  |
| 1600 (≈ 11100 µM) | > 800 | 200 (≈ 1390 µM) | 200 (≈ 1390 µM) | > 800 | > 800 | 400 (≈ 2770 µM) | 200 (≈ 1390 µM) | 200 (≈ 1390 µM) | 200 (≈ 1390 µM) | 200 (≈ 1390 µM) | 100 (≈ 693 µM) | 400 (≈ 2770 µM) | 50 (≈ 347 µM) | CCCCCCCC(=O)O [OCTANOIC ACID] |  |
| 50 (≈ 297 µM) | > 800 | 25 (≈ 149 µM) | 6.25 (≈ 37.1 µM) | > 800 | > 800 | 25 (≈ 149 µM) | 25 (≈ 149 µM) | 12.5 (≈ 74.3 µM) | 12.5 (≈ 74.3 µM) | 25 (≈ 149 µM) | 6.25 (≈ 37.1 µM) | 12.5 (≈ 74.3 µM) | 1.56 (≈ 9.27 µM) | CCCCCCCC/C=C/C=O |  |
| 100 (≈ 713 µM) | > 800 | 25 (≈ 178 µM) | 25 (≈ 178 µM) | 200 (≈ 1430 µM) | 200 (≈ 1430 µM) | 100 (≈ 713 µM) | 50 (≈ 357 µM) | 25 (≈ 178 µM) | 25 (≈ 178 µM) | 25 (≈ 178 µM) | 50 (≈ 357 µM) | 50 (≈ 357 µM) | 12.5 (≈ 89.1 µM) | CCCCCC/C=C/C=O [2-NONENAL] |  |

The remaining lines, values behind:

| SMILES | MIC [15] [µg/mL] | MIC [16] [µg/mL] | MIC [17] [µg/mL] | MIC [18] [µg/mL] | MIC [19] [µg/mL] | MIC [20] [µg/mL] | MIC [21] [µg/mL] | MIC [22] [µg/mL] | MIC [23] [µg/mL] | MIC [24] [µg/mL] | MIC [25] [µg/mL] | MIC [26] [µg/mL] | MIC [27] [µg/mL] | MIC [28] [µg/mL] | other results |
| --- | --- | --- | --- | --- | --- | --- | --- | --- | --- | --- | --- | --- | --- | --- | --- |
| CCCCCCCCCCCCCCCC(=O)O |  |  |  |  |  |  |  |  |  |  |  |  |  |  | Activity [1]: inactive; Activity [2]: inactive; Activity [3]: inactive; Activity [4]: inactive; Activity [5]: inactive; Activity [6]: inactive; Activity [7]: inactive; Activity [8]: inactive; Activity [9]: inactive; Activity [10]: inactive; Activity [11]: inactive; Activity [12]: inactive; Activity [13]: inactive; Activity [14]: inactive |
| CCCCC/C=C/C=C/C=O | 100 (≈ 657 µM) | > 800 | 12.5 (≈ 82.1 µM) | 12.5 (≈ 82.1 µM) | > 800 | > 800 | 100 (≈ 657 µM) | 50 (≈ 328 µM) | 25 (≈ 164 µM) | 25 (≈ 164 µM) | 25 (≈ 164 µM) | 12.5 (≈ 82.1 µM) | 50 (≈ 328 µM) | 1.56 (≈ 10.2 µM) |  |
| CCCC/C=C/C=O | 400 (≈ 3570 µM) | 800 (≈ 7130 µM) | 50 (≈ 446 µM) | 100 (≈ 891 µM) | 400 (≈ 3570 µM) | 400 (≈ 3570 µM) | 400 (≈ 3570 µM) | 200 (≈ 1780 µM) | 100 (≈ 891 µM) | 100 (≈ 891 µM) | 100 (≈ 891 µM) | 50 (≈ 446 µM) | 400 (≈ 3570 µM) | 25 (≈ 223 µM) | Ratio [29]: <=2; Ratio [30]: <=2; Ratio [31]: <=2; Ratio [32]: <=2; Ratio [33]: <=2; Ratio [34]: <=2; Ratio [35]: <=2; Ratio [36]: <=2 |
| CC(C)=CC=O [3-METHYL-(E)-2-BUTENAL] | > 800 | > 800 | 200 (≈ 2380 µM) | 800 (≈ 9510 µM) | > 800 | > 800 | > 800 | 800 (≈ 9510 µM) | 800 (≈ 9510 µM) | 800 (≈ 9510 µM) | 800 (≈ 9510 µM) | 50 (≈ 594 µM) | > 800 | 200 (≈ 2380 µM) |  |
| CCCCC/C=C/C=O | 400 (≈ 3170 µM) | > 800 | 25 (≈ 198 µM) | 50 (≈ 396 µM) | 200 (≈ 1580 µM) | 200 (≈ 1580 µM) | 200 (≈ 1580 µM) | 100 (≈ 792 µM) | 50 (≈ 396 µM) | 50 (≈ 396 µM) | 50 (≈ 396 µM) | 50 (≈ 396 µM) | 200 (≈ 1580 µM) | 25 (≈ 198 µM) |  |

From ChEMBL document CHEMBL1150081, “Antimicrobial Agents from Tanacetum balsamita” (1995)
